Results: patent US20140017330A1, “Activated Nucleoside Analog Conjugates and Methods of Use Thereof” (BOARD OF REGENTS OF THE UNIVERSITY OF NEBRASKA, priority 2011, published 2014)

Experiments:
[1] = system: cytarabine-resistant human leukemic lymphoblast CEM/araC/8 cells; assay: MTT cytotoxicity assay, CEM/araC/8; type: cell-based; settings: 72-hour treatment
Experimental: (§1) Human breast carcinoma MCF-7, human hepatocellular carcinoma HepG2, and human prostate adenocarcinoma PC-3 cells were obtained from ATCC (Rockville, Md.). These cells were maintained in Dulbecco's Modified Eagle Medium (DMEM) supplemented with 10% fetal bovine serum (FBS), 1% L-glutamine, and 2% penicillin-streptomycin at 37° C. in a humidified atmosphere containing 5% CO2. […] These cells were maintained in DMEM/Nutrient mixture F-12 (DMEM/F12) with similar supplements and serum as above. […] They were grown in the presence of 2 μM gemcitabine. […] Galmarini (UFR Lyon-Sud, Oullins, France). The cells were grown in the presence of 0.5 μM cytarabine (araC). […]
(§2) Cytotoxicity of the polymeric conjugates was analyzed in different cancer cell lines by a standard MTT assay. […] Samples were incubated in full medium for 72 hours at 37° C., and the metabolic activity of each sample was determined by adding 20 μL of a 5 mg/mL of MTT stock solution in sterile PBS buffer to each well. […] Optical absorbance was measured at 560 nm using a model 680 microplate reader (BioRad, Hercules, Calif.) and cytotoxicity was expressed as a percentage of survived cells relative to nontreated control cells. All samples were analyzed by an average of eight measurements (means±SEM).

[2] = system: human breast carcinoma MCF-7 cells; assay: MTT cytotoxicity assay, MCF-7; type: cell-based; settings: MCF7, 72-hour treatment
Experimental: as §1, §2

[3] = system: human breast carcinoma MDA-MB-231 cells; assay: MTT cytotoxicity assay, MDA-MB-231; type: cell-based; settings: 72-hour treatment
Experimental: as §1, §2

[4] = system: human hepatocellular carcinoma HepG2 cells; assay: MTT cytotoxicity assay, HepG2; type: cell-based; settings: 72-hour treatment, read-out: IC50 values, Hep G2
Experimental: as §1, §2

[5] = system: human prostate adenocarcinoma PC-3 cells; assay: MTT cytotoxicity assay, PC-3; type: cell-based; settings: 72-hour treatment
Experimental: as §1, §2

[6] = system: gemcitabine-resistant human follicular lymphoma RL7/G cells; assay: MTT cytotoxicity assay, RL7/G; type: cell-based; settings: 72-hour treatment
Experimental: as §1, §2

[7] = comparator from the literature (Mikkola 2004); cited from earlier work

Nc1ccn([C@@H]2O[C@H](CO)[C@@H](O)[C@@H]2O)c(=O)n1 [Cytarabine (araC), arabinosylcytosine]
IC50 [1]: 1.23 mM

O=c1[nH]c(=O)n([C@H]2C[C@H](O)[C@@H](CO)O2)cc1F [Floxuridine (FdU), 5-fluoro-2′-deoxyuridine]
IC50 [2]: 12.2 mM | IC50 [3]: 0.0142 mM | IC50 [4]: 2.19 mM | IC50 [5]: 0.0065 mM

Nc1ccn([C@@H]2O[C@H](CO)[C@@H](O)C2(F)F)c(=O)n1 [Gemcitabine (G), 2,2′-difluorocytidine]
IC50 [6]: 19 mM

Nc1ncnc2c1ncn2[C@@H]1O[C@H](COP(=O)(O)OP(=O)(O)OP(=O)(O)OP(=O)(O)OC[C@H]2O[C@@H](n3cnc4c(N)ncnc43)[C@H](O)[C@@H]2O)[C@@H](O)[C@H]1O [diadenosine-P1,P4-tetraphosphate]
drug release time [7]: 3 days
